The results in this text go back to patent publication US20070191476A1, “Antioxidant Components for Reduction of Nucleic Acid Damage in Companion Animals” (Mars, Incorporated, priority 2001, published 2007).

One data set has as its system canine leukocytes. As for the experimental part: (§1) All cats and dogs were housed at the Waltham Centre for Pet Nutrition, in conditions resembling those of pet cats and dogs, and were fed commercially available, complete diets throughout the study period. Fasted blood samples (5 ml) were drawn from the jugular vein of 12 healthy adult cats (7.2±4.8 years) and 12 healthy adult dogs (4.5±2.3 years) into lithium herparin vials and diluted 1:1 in PBS. Leukocytes were isolated over Histopaque 1083 gradients (Sigma, UK) by centrifugation at 1000 g for 40 minutes. Leukocytes were washed twice in 10 mls PBS and centrifuged at 700 g for 10 minutes before counting and storing at 1×10^6 cells/ml in 90% fetal calf serum (Sigma) and 10% dimethyl sulphoxide (Sigma) at −80° C. until required.
(§2) DNA damage was induced in vitro by exposing the leukocytes to a range of H2O2 concentrations (0-250 μM diluted in PBSa) to determine the optimal level of H2O2 required to induce a significant increase in DNA damage above background endogenous DNA damage levels. Leukocytes were thawed rapidly in a 37° C. water bath, washed twice in PBSa, centrifuged at 700 g for 15 minutes and resuspended in PBSa at […]. Cells were re-suspended in 0 μM, 10 μM, 50 μM, 100 μM and 250 μM H2O2 in PBSa and incubated on ice for 5 minutes. Treated leukocytes were centrifuged at 700 g for 15 minutes at 4° C. ready for slide preparation.
(§3) Two layers of agarose were prepared. For the first layer, 85 μl 1% (w/v) high-melting point (HMP) agarose (Sigma) prepared at 95° C. in PBSa was pipetted onto fully frosted microscope slides, covered with an 18×18 mm coverslip and allowed to set at 4° C. for 10 minutes. Untreated and hydrogen peroxide-treated leukocytes were washed twice in PBS, centrifuged at 700 g for 15 minutes and resuspended at 2×10^5 in 85 μl 1% (w/v) low melting point (LMP) agarose (Sigma). The cell suspension was then pipetted over the set HMP agarose layer, covered with an 18×18 mm coverslip and allowed to set at 4° C. for 10 minutes. After the coverslips were removed, the slides were immersed in freshly prepared cold lysis solution.

Another data set deals with feline leukocytes. Here is the method: as §1, §2, §3
Setting [1] is: 10-250 μM H2O2, 5 minutes, p<0.001.

Take `OO` [H2O2, hydrogen peroxide]: the “DNA damage in relation to all other concentrations of H2O2” value in the data set with canine leukocytes (250 μM H2O2, FIG. 2) is “significant increases in DNA damage”; in the data set with feline leukocytes (250 μM H2O2, FIG. 1), “significant increases in DNA damage”. Moreover, the “DNA damage (visual comet score) versus untreated samples” value with canine leukocytes (setting [1]) and in the data set with feline leukocytes (setting [1]) was “Statistically significant increases in DNA damage” throughout.
